The values below come from paper PMC12446476 (Nature Communications, 2025).

The target of series [1] is recombinant NgFabI protein (Neisseria gonorrhoeae, UniProt A0ACH0F547). The settings on record: cited from earlier work.
The next series deals with N. gonorrhoeae. The series is described as follows: MIC determination, agar dilution (CLSI). Conditions: Neisseria gonorrhoeae, read-out: Minimum inhibitory concentration. Type of series: cell-based, Neisseria gonorrhoeae. The source says: The 2024 WHO N. gonorrhoeae reference strains were used for quality control. Only whole MIC doubling dilutions are reported. Clinical breakpoints or the epidemiological cutoff (ECOFF, to indicate azithromycin resistance) from EUCAST (v14.0, https://www.eucast.org/clinical_breakpoints) were used to classify isolates as antimicrobial susceptible or resistant. […] Two times the standard inoculum defined by CLSI was used to establish consistent growth in untreated control samples for some strains. In vitro time-kill assays were performed according to CLSI guidelines[65] using Columbia Broth (BD Difco) supplemented with 1% IsoVitaleX Enrichment (BD). Viable bacterial counts were generated by plating 10-fold serially diluted samples on GC agar plates containing 1% IsoVitaleX Enrichment (BD).

For series [2], the system named is mouse lymphoma L5178Y TK+/− cells. Type of series: cell-based. Conditions: positive control, 10 µg/mL.
In another series the test system is E. coli WP2 uvrA. The series is described as follows: Ames assay, E. coli strain. The class given is cell-based. The settings on record: without S9, positive control 500 µg/plate. As to the method: Ames assays were performed using four strains of Salmonella typhimurium (TA1535, TA1537, TA98 and TA100) and a single strain of E. coli (WRP2 uvrA) in the presence and absence of S9 tissue homogenate. Dose levels (µg/plate) up to 4000 were assessed for WP2 uvrA and TA98, 500 for TA1535, 250 for TA1537 and 62.5 for TA100.

Converted amounts (≈) assume the structure as drawn. “And” between values parts separate entries of the source, which are not always exact repeats. Equal entries are not always repeated. Where two headings read alike, the source gives them in different places.

Sequence of recombinant NgFabI protein (A0ACH0F547 entry or part of it): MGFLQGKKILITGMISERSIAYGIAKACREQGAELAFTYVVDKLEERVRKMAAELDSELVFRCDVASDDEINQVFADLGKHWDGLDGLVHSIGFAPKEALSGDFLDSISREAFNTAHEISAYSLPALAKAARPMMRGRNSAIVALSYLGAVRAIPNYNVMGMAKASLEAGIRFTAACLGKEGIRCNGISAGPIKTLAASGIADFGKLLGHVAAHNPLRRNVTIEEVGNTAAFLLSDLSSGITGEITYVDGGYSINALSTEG

Turning to `Cc1c(CN(C)C(=O)/C=C/c2cnc3c(c2)CCC(=O)N3)oc2ccccc12` [Debio 1452, (E)-N-methyl-N-((3-methylbenzofuran-2-yl)methyl)-3-(7-oxo-5,6,7,8-tetrahydro-1,8-naphthyridin-3-yl)acrylamide, reference compound], the IC50 in series [1] (deduced from Figure 3A of reference 15) was ~100 nM. In addition, the Ki in series [1] (seen by the reviewer in the cited work, read-out: Kiapp) is 5 nM. Besides, the MIC in the series on N. gonorrhoeae (screening panel N. gonorrhoeae isolate E) stood at 0.5 µg/mL (≈ 1.33 µM); in the series with N. gonorrhoeae (screening panel N. gonorrhoeae isolate F), 2 µg/mL (≈ 5.33 µM); in the series with N. gonorrhoeae (screening panel N. gonorrhoeae isolate G) it was 4 µg/mL (≈ 10.7 µM); with N. gonorrhoeae (screening panel N. gonorrhoeae isolate H) it was 2 µg/mL (≈ 5.33 µM); in the series on N. gonorrhoeae (screening panel N. gonorrhoeae isolate I), 1 µg/mL (≈ 2.66 µM); in the series on N. gonorrhoeae (screening panel N. gonorrhoeae isolate J), 2 µg/mL (≈ 5.33 µM). Also, the MIC in the series on N. gonorrhoeae (screening panel N. gonorrhoeae isolate K) was determined as 4 µg/mL (≈ 10.7 µM).

In the case of `COS(C)(=O)=O` [MMS, Methyl methanesulfonate], in series [2], the Induced mutant frequency amounted to 421.6 and the “Mutant frequency per 10^6 cells” value is listed as 490.9. In the series on E. coli WP2 uvrA, the “Ames bacterial mutation assessment, Mean” value is 168; the Colony count was 174 and 161 and 169.

As a reminder, the IC50 is the point on the concentration scale where inhibition reaches its midpoint.
